From patent publication US12655185B2, “Peptide inhibitors of interleukin-23 and their use to treat inflammatory diseases” (Protagonist Therapeutics, Inc., priority 2016, dated 2026)
Blank lines part the entries; values can stand above or below the compound they belong to. Bridge positions count the residues as written; N and C are the ends. Peptide text beside a SMILES is read from it.

Columns and labels:
[1] = target: T1, IL-23 binding to human IL-12Rβ1_huFC (Homo sapiens, UniProt P29460+Q9NPF7); test: Human IL23/IL12Rβ1 huFc ELISA; details: for blocking of binding of IL-23 to IL-12Rβ1: result in words
T1 sequence (Q9NPF7 20-189): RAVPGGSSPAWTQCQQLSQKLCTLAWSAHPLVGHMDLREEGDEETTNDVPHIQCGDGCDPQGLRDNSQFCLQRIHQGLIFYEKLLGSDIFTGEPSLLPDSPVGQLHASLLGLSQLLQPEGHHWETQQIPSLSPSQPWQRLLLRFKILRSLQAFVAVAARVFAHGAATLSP
T1 sequence (P29460 23-328): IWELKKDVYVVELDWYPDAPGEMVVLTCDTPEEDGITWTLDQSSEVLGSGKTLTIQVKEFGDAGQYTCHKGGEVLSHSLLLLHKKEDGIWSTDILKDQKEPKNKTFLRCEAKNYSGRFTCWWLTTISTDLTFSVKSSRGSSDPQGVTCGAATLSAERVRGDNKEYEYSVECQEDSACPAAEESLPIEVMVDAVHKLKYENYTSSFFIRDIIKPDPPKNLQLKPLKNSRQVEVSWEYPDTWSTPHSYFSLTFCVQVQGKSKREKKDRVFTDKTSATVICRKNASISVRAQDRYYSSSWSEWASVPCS
Procedure: (§1) The ability of Peptide 10 to block binding of IL-23 to IL-12Rβ1 or binding of IL-12 to IL-12Rβ1 was also determined. Human IL-12Rβ1 ELISA assays were performed as follows: an assay plate was coated with 100 ng/well of human IL-12Rβ1_huFC and incubated overnight at 4° C. The wells were washed, blocked, and washed again. Serial dilutions of test peptides and either IL-23 or IL-12 at a fixed concentration corresponding to EC50 values were added to each well, and incubated for 2 hours at room temperature. After the wells were washed, bound IL-23 were detected with goat anti-p40 polyclonal antibodies followed by an HRP conjugated donkey anti-goat IgG, and bound IL-12 were detected with a biotin conjugated anti-p40 monoclonal antibody followed by HRP conjugated streptavidin. Signals were visualized with TMB One Component HRP Membrane Substrate and quenched with 2 M sulfuric acid.

[2] = system: human IL-23-dependent release of IL-17 from mouse splenocytes; test: Mouse splenocyte assay; type: cell-based; details: IL-17A release; IL-23 20 ng/mL; 67 hours
Procedure: Frozen mouse splenocytes (Hooke Lab), suspended in RPMI Medium 1640 (Life technologies #22400-089) supplemented with 10% heat inactivated FBS (Life technologies #16140-071), 1×MEM Non-Essential Amino Acid Solution (Life technologies #11140-050), 1 mM sodium pyruvate (Life technologies #11360-070), 100 units of Penicillin-Streptomycin (Life technologies #15140-122, 0.05 mM 2-mercaptoethanol (Life technologies #21985-023) and recombinant human IL-2 (R&D Systems #202-IL-010/CF), were seeded at 4×10E5 cells/well in a 96 well tissue culture plate. Serial dilutions of test peptides and IL-23 at a final concentration of 20 ng/mL were preincubated in a separate assay plate for 60 minutes at 37° C. in a 5% CO2 humidified incubator. Preincubated samples were then added to the culture plate containing splenocytes and incubated for an additional 67 hours at 37° C. in a 5% CO2 humidified incubator. A sandwich ELISA kit for mouse IL17A (Biolegend #436204) was used to measure the amount of IL-17A in each sample supernatants, according to manufacturer's instructions.

[3] = target: T2, IL-23 binding to IL23R_huFC (human IL-23R) (Homo sapiens, UniProt P29460+Q9NPF7); test: IL23-IL23R Competitive Binding ELISA; details: inhibition of IL-23/IL-23R binding; IL-23 0.9 nM; class symbols; read-out: IC50 IL23R_huFC
T2 sequence (Q9NPF7 20-189): T1 sequence (Q9NPF7 20-189)
T2 sequence (P29460 23-328): T1 sequence (P29460 23-328)
Procedure: Immulon® 4HBX plate was coated with 200 ng/well of IL23R_huFC and incubated overnight at 4° C. […] Serial dilutions of test peptides and IL-23 at a final concentration of 0.9 nM diluted in PBS were added to each well and incubated for 2 hours at room temperature. After the wells were washed, bound IL-23 was detected by incubation with 50 ng/well of goat anti-p40 polyclonal antibodies (R&D Systems #AF309) diluted in PBS for 1 hour at room temperature. The wells were again washed four times with PBST. […] The plate was finally washed as above. Signals were visualized with TMB One Component HRP Membrane Substrate, quenched with 2 M sulfuric acid and read spectrophotometrically at 450 nm.

[4] = target: T3, IL-12 binding to human IL-12Rβ1_huFC (Homo sapiens, UniProt P29459+P29460); test: Human IL12/IL12Rβ1 huFc ELISA
T3 sequence (P29459 23-219): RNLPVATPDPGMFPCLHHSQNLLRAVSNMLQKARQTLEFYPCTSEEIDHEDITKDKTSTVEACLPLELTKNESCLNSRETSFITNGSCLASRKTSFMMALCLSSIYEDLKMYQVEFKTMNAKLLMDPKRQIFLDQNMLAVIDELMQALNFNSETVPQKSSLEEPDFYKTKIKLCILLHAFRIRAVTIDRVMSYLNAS
T3 sequence (P29460 23-328): T1 sequence (P29460 23-328)
Procedure: as §1

[5] = target: T4, mouse IL-23 binding to mouse IL-23R (Mus musculus, UniProt P43432+Q9EQ14); test: Mouse IL23/IL23R huFc ELISA; details: data not shown
T4 sequence (Q9EQ14 22-196): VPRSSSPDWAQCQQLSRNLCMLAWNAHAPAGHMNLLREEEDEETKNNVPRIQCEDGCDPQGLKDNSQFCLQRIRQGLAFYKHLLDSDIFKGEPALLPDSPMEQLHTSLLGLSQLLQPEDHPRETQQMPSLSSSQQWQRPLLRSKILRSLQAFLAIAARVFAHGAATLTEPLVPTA
T4 sequence (P43432 23-335): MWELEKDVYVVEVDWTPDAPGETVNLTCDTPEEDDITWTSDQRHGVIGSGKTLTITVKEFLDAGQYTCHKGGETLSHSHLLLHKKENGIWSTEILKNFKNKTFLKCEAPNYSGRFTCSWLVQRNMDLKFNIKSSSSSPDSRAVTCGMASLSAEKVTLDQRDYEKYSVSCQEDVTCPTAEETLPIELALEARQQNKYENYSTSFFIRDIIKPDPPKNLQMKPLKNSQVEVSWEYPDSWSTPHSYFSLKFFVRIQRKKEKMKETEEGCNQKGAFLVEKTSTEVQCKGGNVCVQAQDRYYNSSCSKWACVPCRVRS
Procedure: Certain peptides were tested to identify peptides that inhibit the binding of IL-23 to human IL-23R or mouse IL-23R, and inhibit IL-23/IL-23R functional activity, as described below. Each of these peptides comprised a disulfide bond between X5 and X34, except for Peptide 1, which comprises a disulfide bond between X4 and X33.

[6] = target: IL-6 binding to IL-6R (Homo sapiens, UniProt P05231); test: Binding of IL-6 to IL-6R; details: data not shown
[7] = target: IL-13 binding to IL-13Ra1 (Homo sapiens, UniProt P35225); test: Binding of IL-13 to IL-13Ra1; details: data not shown

Compound: CC[C@H](C)[C@@H]1NC(=O)[C@H](CO)NC(=O)[C@H](CCCCN)NC(=O)[C@H](C)NC(=O)[C@H](CCCCN)NC(=O)[C@H](C)NC(=O)[C@H](Cc2c[nH]c3ccccc23)NC(=O)[C@H](CCCNC(=N)N)NC(=O)[C@H](CCC(N)=O)NC(=O)[C@H](CCC(=O)O)NC(=O)[C@H](CCC(N)=O)NC(=O)[C@H](CC(N)=O)NC(=O)[C@H](CC(C)C)NC(=O)[C@H](CC(N)=O)NC(=O)[C@@H]2CCCN2C(=O)[C@H](CC(=O)O)NC(=O)[C@H](C(C)C)NC(=O)CNC(=O)[C@H](C)NC(=O)[C@H](CCC(=O)O)NC(=O)[C@H](CO)NC(=O)[C@H](CCSC)NC(=O)[C@H](CCCNC(=N)N)NC(=O)[C@H](CCCNC(=N)N)NC(=O)[C@H](CC(C)C)NC(=O)[C@@H](NC(=O)[C@H](CCC(N)=O)NC(=O)[C@H](CCSC)NC(=O)[C@H](CC(N)=O)NC(=O)[C@H](Cc2ccccc2)NC(C)=O)CSSC[C@@H](C(N)=O)NC(=O)[C@H](CC(=O)O)NC(=O)[C@H](CC(=O)O)NC(=O)[C@H](CCSC)NC1=O [Peptide 21] (Ac-FNMQCLRRMSEAGVDPNLNQEQRWAKAKSIMDDC-NH2; disulfide 5-34)
IC50 [3]: 1 to 10 µM

Compound: CC[C@H](C)[C@@H]1NC(=O)[C@H](CCCCN)NC(=O)[C@H](C)NC(=O)[C@H](Cc2c[nH]c3ccccc23)NC(=O)[C@H](CCCNC(=N)N)NC(=O)[C@H](CCC(N)=O)NC(=O)[C@H](CCC(=O)O)NC(=O)[C@H](CCC(N)=O)NC(=O)[C@H](CC(N)=O)NC(=O)[C@H](CC(C)C)NC(=O)[C@H](CC(N)=O)NC(=O)[C@@H]2CCCN2C(=O)[C@H](CC(=O)O)NC(=O)[C@H](C(C)C)NC(=O)CNC(=O)[C@H](C)NC(=O)[C@H](CCC(=O)O)NC(=O)[C@H](CO)NC(=O)[C@H](CCSC)NC(=O)[C@H](CCCNC(=N)N)NC(=O)[C@H](CCCNC(=N)N)NC(=O)[C@H](CC(C)C)NC(=O)[C@@H](NC(=O)[C@H](CCC(N)=O)NC(=O)[C@H](CCSC)NC(=O)[C@H](CC(N)=O)NC(=O)[C@H](Cc2ccccc2)NC(C)=O)CSSC[C@@H](C(N)=O)NC(=O)[C@H](CC(=O)O)NC(=O)[C@H](CC(=O)O)NC(=O)[C@H](CCSC)NC(=O)[C@H]([C@@H](C)CC)NC(=O)[C@H](CO)NC(=O)[C@H](CCCCN)NC1=O [Peptide 10] (Ac-FNMQCLRRMSEAGVDPNLNQEQRWAKIKSIMDDC-NH2; disulfide 5-34)
IC50 ([4]; competition binding, IL-12 at EC50, read-out: Human IL12/IL12Rβ1huFc ELISA): > 100 µM
blocking of binding of IL-12 to IL12Rβ1 ([4]; result in words): did not block
IC50 ([1]; competition binding, IL-23 at EC50): > 100 µM
blocking of binding of IL-23 to IL-12Rβ1 [1]: did not block
IC50 [2]: 1600 nM
blocking of binding of mouse IL-23 to mouse IL-23R [5]: blocked
blocking of binding of IL-6 to IL-6R [6]: did not block
IC50 [3]: 1 to 10 µM
blocking of binding of IL-13 to IL-13Ra1 [7]: did not block

Compound: CC[C@H](C)[C@@H]1NC(=O)[C@H](CCCCN)NC(=O)[C@H](C)NC(=O)[C@H](Cc2c[nH]c3ccccc23)NC(=O)[C@H](CCCNC(=N)N)NC(=O)[C@H](CCC(N)=O)NC(=O)[C@H](CCC(=O)O)NC(=O)[C@H](CCC(N)=O)NC(=O)[C@H](CC(N)=O)NC(=O)[C@H](CC(C)C)NC(=O)[C@H](CC(N)=O)NC(=O)[C@@H]2CCCN2C(=O)[C@H](CC(=O)O)NC(=O)[C@H](C(C)C)NC(=O)CNC(=O)[C@H](C)NC(=O)[C@H](CCC(=O)O)NC(=O)[C@H](CO)NC(=O)[C@H](C)NC(=O)[C@H](CCCNC(=N)N)NC(=O)[C@H](CCCNC(=N)N)NC(=O)[C@H](CC(C)C)NC(=O)[C@@H](NC(=O)[C@H](CCC(N)=O)NC(=O)[C@H](CCSC)NC(=O)[C@H](CC(N)=O)NC(=O)[C@H](Cc2ccccc2)NC(C)=O)CSSC[C@@H](C(N)=O)NC(=O)[C@H](CC(=O)O)NC(=O)[C@H](CC(=O)O)NC(=O)[C@H](CCSC)NC(=O)[C@H]([C@@H](C)CC)NC(=O)[C@H](CO)NC(=O)[C@H](CCCCN)NC1=O [Peptide 12] (Ac-FNMQCLRRASEAGVDPNLNQEQRWAKIKSIMDDC-NH2; disulfide 5-34)
IC50 [3]: 1 to 10 µM

Second part, led by results:

blocking of binding of IL-23 to IL-12Rβ1 [1]: blocked
Compound: Ustekinumab: a humanized antibody that binds IL-23 (p40 subunit), approved for the treatment of psoriasis [reference compound]
Mouse splenocyte assay [2]: 0.06 µg/mL

IC50 [3]: 1 to 10 µM
Compound: CC[C@H](C)[C@@H]1NC(=O)[C@H](CCCCN)NC(=O)[C@H](C)NC(=O)[C@H](Cc2c[nH]c3ccccc23)NC(=O)[C@H](CCCNC(=N)N)NC(=O)[C@H](CCC(N)=O)NC(=O)[C@H](CCC(=O)O)NC(=O)[C@H](CCC(N)=O)NC(=O)[C@H](CC(N)=O)NC(=O)[C@H](CC(C)C)NC(=O)[C@H](CC(N)=O)NC(=O)[C@@H]2CCCN2C(=O)[C@H](CC(=O)O)NC(=O)[C@H](C(C)C)NC(=O)CNC(=O)[C@H](C)NC(=O)[C@H](CCC(=O)O)NC(=O)[C@H](CO)NC(=O)[C@H](CCSC)NC(=O)[C@H](CCCNC(=N)N)NC(=O)[C@H](CCCNC(=N)N)NC(=O)[C@H](CC(C)C)NC(=O)[C@@H](NC(=O)[C@H](CCC(N)=O)NC(=O)[C@H](CCSC)NC(=O)[C@H](CC(N)=O)NC(=O)[C@H](Cc2ccccc2)NC(C)=O)CSSC[C@@H](C(N)=O)NC(=O)[C@H](CC(=O)O)NC(=O)[C@H](CC(=O)O)NC(=O)[C@H](CCSC)NC(=O)[C@H]([C@@H](C)CC)NC(=O)[C@H](CO)NC(=O)[C@H](C)NC1=O [Peptide 22] (Ac-FNMQCLRRMSEAGVDPNLNQEQRWAKIASIMDDC-NH2; disulfide 5-34)
